Source: patent US6376497B1, “Antifungal azole derivatives having a fluorinated vinyl group and process for preparing same” (Korea Research Institute of Chemical Technology, priority 1999, dated 2002)
Converted amounts (≈) assume the structure as drawn.

Assays:
Test in all cases: In vitro antifungal activity, microbroth dilution MIC
Format in all cases: cell-based
[1] = test system: Aspergillus furnigatus B. 19119; details: A furnigatus B. 19119, RPMI-1640, 35° C., 4 to 48 hours
Procedure, shortened: (§1)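 Broth microdilution adapted from NCCLS M27, in RPMI-1640 with 0.165 M MOPS, pH 7.0. Yeast or mould inoculum at 2×10^3 CFU/ml was mixed 1:1 with DMSO-derived compound solutions (200 to 0.10 μg/ml before mixing) and incubated at 35 °C for 4 to 48 h. MIC was the concentration showing no growth.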

[2] = test system: Aspergillus niger A. 16404; details: A. niger A. 16404, RPMI-1640, 35° C., 4 to 48 hours
Procedure, shortened: as §1

[3] = test system: Candida parapsitosis A. 7330; details: C. parapsitosis A. 7330, RPMI-1640, 35° C., 4 to 48 hours
Procedure, shortened: as §1

[4] = test system: Candida albicans IFO. 1385; details: C. albicans IFO. 1385, RPMI-1640, 35° C., 4 to 48 hours
Procedure, shortened: as §1

[5] = test system: Cryptococcus neoformans IFM. 40092; details: Cry. neoformans IFM. 40092, RPMI-1640, 35° C., 4 to 48 hours
Procedure, shortened: as §1

[6] = test system: Candida albicans A. 10231; details: C. albicans A. 10231, RPMI-1640, 35° C., 4 to 48 hours
Procedure, shortened: as §1

[7] = test system: Candida tropicalis A. 13803; details: C. tropicalis A. 13803, RPMI-1640, 35° C., 4 to 48 hours
Procedure, shortened: as §1

[8] = test system: Trichophyton mentagrophytes A. 9129; details: T. mentagrophytes A. 9129, RPMI-1640, 35° C., 4 to 48 hours
Procedure, shortened: as §1

Candida albicans C1-2 = details: C. albicans C1-2, RPMI-1640, 35° C., 4 to 48 hours
Procedure, shortened: as §1

[9] = test system: Cryptococcus neoformans A. 34144; details: Cry. neoformans A. 34144, RPMI-1640, 35° C., 4 to 48 hours
Procedure, shortened: as §1

[10] = test system: Candida pseudotropicalis K. 11658; details: C. pseudotropicalis K. 11658, RPMI-1640, 35° C., 4 to 48 hours
Procedure, shortened: as §1

[11] = test system: Cryptococcus neoformans B. 42419; details: Cry. neoformans B. 42419, RPMI-1640, 35° C., 4 to 48 hours
Procedure, shortened: as §1

[12] = test system: Torulopsis glabrata B. 16205; details: T. glabrata B. 16205, RPMI-1640, 35° C., 4 to 48 hours
Procedure, shortened: as §1

[13] = test system: Trichophyton mentagrophytes B. 32663; details: T. mentagrophytes B. 32663, RPMI-1640, 35° C., 4 to 48 hours
Procedure, shortened: as §1

Candida krusei K. 11655 = details: C. krusei K. 11655, RPMI-1640, 35° C., 4 to 48 hours
Procedure, shortened: as §1

SMILES | Minimal inhibitory concentration (MIC) [1] | Minimal inhibitory concentration (MIC) [2] | Minimal inhibitory concentration (MIC) [3] | Minimal inhibitory concentration (MIC) [4] | Minimal inhibitory concentration (MIC) [5] | Minimal inhibitory concentration (MIC) [6] | Minimal inhibitory concentration (MIC) [7] | Minimal inhibitory concentration (MIC) [8] | Minimal inhibitory concentration (MIC) (Candida albicans C1-2) | Minimal inhibitory concentration (MIC) [9] | Minimal inhibitory concentration (MIC) [10] | Minimal inhibitory concentration (MIC) [11] | Minimal inhibitory concentration (MIC) [12] | Minimal inhibitory concentration (MIC) [13] | Minimal inhibitory concentration (MIC) (Candida krusei K. 11655)
CC(C)Oc1cccc(C=C(F)OCC2COC(Cn3ccnc3)(c3ccc(Cl)cc3Cl)O2)c1 (stereo not drawn) [Ex. 11] | 12.5 µg/mL (≈ 24.6 µM) | 50.0 µg/mL (≈ 98.5 µM) | 6.25 µg/mL (≈ 12.3 µM) | 1.56 µg/mL (≈ 3.07 µM) | 0.39 µg/mL (≈ 0.769 µM) | 25.0 µg/mL (≈ 49.3 µM) | 50.0 µg/mL (≈ 98.5 µM) | 12.5 µg/mL (≈ 24.6 µM) | 25.0 µg/mL (≈ 49.3 µM) | 1.56 µg/mL (≈ 3.07 µM) | 3.13 µg/mL (≈ 6.17 µM) | 1.56 µg/mL (≈ 3.07 µM) | 12.5 µg/mL (≈ 24.6 µM) | 1.56 µg/mL (≈ 3.07 µM) | 12.5 µg/mL (≈ 24.6 µM)
FC(=Cc1ccc2c(c1)OCO2)OCC1COC(Cn2ccnc2)(c2ccc(Cl)cc2Cl)O1 (stereo not drawn) [Ex. 12] | 1.56 µg/mL (≈ 3.16 µM) | 3.13 µg/mL (≈ 6.34 µM) | 6.25 µg/mL (≈ 12.7 µM) | 1.56 µg/mL (≈ 3.16 µM) | 0.39 µg/mL (≈ 0.791 µM) | 12.5 µg/mL (≈ 25.3 µM) | 50.0 µg/mL (≈ 101 µM) | 0.78 µg/mL (≈ 1.58 µM) | 25.0 µg/mL (≈ 50.7 µM) | 1.56 µg/mL (≈ 3.16 µM) | 3.13 µg/mL (≈ 6.34 µM) | 0.78 µg/mL (≈ 1.58 µM) | 6.25 µg/mL (≈ 12.7 µM) | 0.78 µg/mL (≈ 1.58 µM) | 6.25 µg/mL (≈ 12.7 µM)
FC(=Cc1cccc(Cl)c1)OCC1COC(Cn2ccnc2)(c2ccc(Cl)cc2Cl)O1 (stereo not drawn) [Ex. 13] | 1.56 µg/mL (≈ 3.22 µM) | 3.13 µg/mL (≈ 6.47 µM) | 50.0 µg/mL (≈ 103 µM) | 0.39 µg/mL (≈ 0.806 µM) | ≦0.10 μg/ml | 6.25 µg/mL (≈ 12.9 µM) | 50.0 µg/mL (≈ 103 µM) | 0.78 µg/mL (≈ 1.61 µM) | 3.13 µg/mL (≈ 6.47 µM) | 0.39 µg/mL (≈ 0.806 µM) | 1.56 µg/mL (≈ 3.22 µM) | 0.39 µg/mL (≈ 0.806 µM) | 6.25 µg/mL (≈ 12.9 µM) | ≦0.10 μg/ml | 25.0 µg/mL (≈ 51.7 µM)
FC(=Cc1ccc(Cl)cc1)OCC1COC(Cn2ccnc2)(c2ccc(Cl)cc2Cl)O1 (stereo not drawn) [Ex. 14] | 6.25 µg/mL (≈ 12.9 µM) | 6.25 µg/mL (≈ 12.9 µM) | 12.5 µg/mL (≈ 25.8 µM) | 0.39 µg/mL (≈ 0.806 µM) | 0.39 µg/mL (≈ 0.806 µM) | 6.25 µg/mL (≈ 12.9 µM) | 12.5 µg/mL (≈ 25.8 µM) | 1.56 µg/mL (≈ 3.22 µM) | 12.5 µg/mL (≈ 25.8 µM) | 0.78 µg/mL (≈ 1.61 µM) | 3.13 µg/mL (≈ 6.47 µM) | 0.78 µg/mL (≈ 1.61 µM) | 6.25 µg/mL (≈ 12.9 µM) | 0.78 µg/mL (≈ 1.61 µM) | 6.25 µg/mL (≈ 12.9 µM)
FC(=Cc1cccc(F)c1)OCC1COC(Cn2ccnc2)(c2ccc(Cl)cc2Cl)O1 (stereo not drawn) [Ex. 15] | 0.78 µg/mL (≈ 1.67 µM) | 1.56 µg/mL (≈ 3.34 µM) | 6.26 µg/mL (≈ 13.4 µM) | ≦0.10 μg/ml | ≦0.10 μg/ml | 6.25 µg/mL (≈ 13.4 µM) | 25.0 µg/mL (≈ 53.5 µM) | 0.39 µg/mL (≈ 0.835 µM) | 3.13 µg/mL (≈ 6.7 µM) | 0.20 µg/mL (≈ 0.428 µM) | 3.13 µg/mL (≈ 6.7 µM) | 0.20 µg/mL (≈ 0.428 µM) | 3.13 µg/mL (≈ 6.7 µM) | ≦0.10 μg/ml | 6.25 µg/mL (≈ 13.4 µM)
